Two molecules from patent US4600772A, “Cephalosporin antibiotics” (Glaxo Group Limited, priority 1978, dated 1986) can be followed below.

Series [1] is described as follows: Distribution in small rodents after subcutaneous injection.
The conditions of series [2]: in vivo.
Series [3] in a line: Effect of human serum on antibacterial properties. The format is cell-based.
Series [4] can be described thus: Acute toxicity tests in mice. Conditions: mouse, in vivo.
A further series relates to Pseudomonas aeruginosa. Kind of series: Experimental infections in mice with Pseudomonas aeruginosa. The format is in vivo.
A short description of series [5]: Effect of increased inocula. The format is cell-based.
The subject of a further series is gram-negative bacteria. Kind of series: Experimental infections in mice with gram-negative bacteria. The format is in vivo.
A further series can be described thus: Nephrotoxicity in rats. The format is in vivo. Conditions: dosages of 2.0 g/kg.
The conditions of series [6]: in vivo. The source holds these as a separate data set.
In series [7] the test system is strains of Pseudomonas organisms. The series is described as follows: Antibacterial activity against strains of Pseudomonas organisms. The conditions noted are these: e.g. strains of Pseudomonas aeruginosa. The format is cell-based.
The subject of series [8] is wide range of commonly encountered pathogenic organisms. Kind of series: Broad spectrum / general antibiotic activity. The format is cell-based.
A short description of another series: Bactericidal action. The format is cell-based. Conditions: at concentrations close to the minimum inhibitory concentration.

As to `CC(C)(O/N=C(\C(=O)N[C@@H]1C(=O)N2C(C(=O)[O-])=C(C[n+]3ccccc3)CS[C@H]12)c1csc(N)n1)C(=O)O` [compound of formula (Ib), (6R,7R)-7-[(Z)-2-(2-aminothiazol-4-yl)-2-(2-carboxyprop-2-oxyimino)acetamido]-3-(1-pyridiniummethyl)-ceph-3-em-4-carboxylate], in [1], the therapeutic levels result is listed as “useful therapeutic levels”. Moreover, in series [2], the “distribution in the body” value was “well distributed”. In series [3], the “impairment of antibacterial properties by human serum” value is “not impaired by human serum”. This molecule displayed an LD50 in series [4] of more than 1000 mg/kg. Besides, the “protection against strains of Pseudomonas aeruginosa” value with Pseudomonas aeruginosa is recorded as “excellent protection”. In addition, the “protection compared with an aminoglycoside such as amikacin” value in the series with Pseudomonas aeruginosa (versus amikacin) is recorded as “comparable”. Moreover, the “effect of increased inocula” value in series [5] is given as “low”. For the same molecule, the “treatment of experimental infections in mice with gram-negative bacteria” value in the series on gram-negative bacteria is reported as “successfully treated”. The nephrotoxicity entry in the series “Nephrotoxicity in rats” is recorded as “No nephrotoxicity was observed”. In addition, the serum levels entry in series [6] was “high and long lasting serum levels”. Besides, the “activity against strains of Pseudomonas organisms” value in series [7] is “excellent activity”. The “antibiotic activity / general antibiotic properties” value in [8] is on record as “possesses to an outstanding extent the general antibiotic properties”. Moreover, the bactericidal action result in the series “Bactericidal action” is on record as “rapidly bactericidal”.

Turning to `Nc1nc(/C(=N/OC2(C(=O)O)CCC2)C(=O)N[C@@H]2C(=O)N3C(C(=O)[O-])=C(C[n+]4ccccc4)CS[C@H]23)cs1` [(6R,7R)-7-[(Z)-2-(2-aminothiazol-4-yl)-2-(1-carboxycyclobut-1-oxyimino)acetamido]-3-(1-pyridiniummethyl)-ceph-3-em-4-carboxylate], the “properties compared with the compound of formula (Ib)” value in [8] is on record as “not dissimilar properties”.
